The values below come from patent publication US20250034216A1, “STEREOSELECTIVE COVALENT LIGANDS FOR ONCOGENIC AND IMMUNOLOGICAL PROTEINS” (The Scripps Research Institute, priority 2021, published 2025).

Common to all, as to test: IA-DTB cysteine engagement
What all share (format): binding
Conditions in all cases: 22Rv1 cells, 20 μM probe, 1 h, relative to DMSO

One test has as its target T1, FXYD3_C63 (Homo sapiens, UniProt Q14802).
T1 construct: endogenous in cells; host or cells: 22Rv1
T1 sequence (Q14802 21-87): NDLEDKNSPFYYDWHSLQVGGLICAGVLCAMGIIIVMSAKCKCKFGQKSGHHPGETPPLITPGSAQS
The procedure, abridged: (§1)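 First, cells are exposed to electrophilic probes in situ. Next, lysates are labeled with IA-DTB (1 h, ambient temperature), reduced, alkylated and trypsin-digested. Then, IA-DTB peptides are enriched on streptavidin, TMT-labeled and analyzed, with ratios taken against DMSO channels.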

For the next test, the target named is T2, HARS2_C173 (Homo sapiens, UniProt P49590).
T2 construct: endogenous in cells; host or cells: 22Rv1
T2 sequence (P49590 34-506): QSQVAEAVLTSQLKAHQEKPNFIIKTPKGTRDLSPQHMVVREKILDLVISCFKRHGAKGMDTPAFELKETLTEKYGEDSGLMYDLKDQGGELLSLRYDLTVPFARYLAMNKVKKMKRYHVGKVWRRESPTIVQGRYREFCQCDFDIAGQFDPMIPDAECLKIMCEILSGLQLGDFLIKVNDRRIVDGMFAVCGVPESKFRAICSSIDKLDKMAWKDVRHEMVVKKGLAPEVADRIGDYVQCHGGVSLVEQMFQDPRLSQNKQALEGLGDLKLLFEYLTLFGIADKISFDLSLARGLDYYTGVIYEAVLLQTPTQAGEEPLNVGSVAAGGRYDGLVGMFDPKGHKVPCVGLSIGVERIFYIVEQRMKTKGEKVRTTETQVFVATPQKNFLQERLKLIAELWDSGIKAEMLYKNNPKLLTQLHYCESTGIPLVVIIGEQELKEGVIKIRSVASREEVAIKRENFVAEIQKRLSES
The procedure, abridged: as §1

A further test addresses T3, MTMR12_C152 (Homo sapiens, UniProt Q9C0I1).
T3 construct: endogenous in cells; host or cells: 22Rv1
T3 sequence (Q9C0I1 1-747): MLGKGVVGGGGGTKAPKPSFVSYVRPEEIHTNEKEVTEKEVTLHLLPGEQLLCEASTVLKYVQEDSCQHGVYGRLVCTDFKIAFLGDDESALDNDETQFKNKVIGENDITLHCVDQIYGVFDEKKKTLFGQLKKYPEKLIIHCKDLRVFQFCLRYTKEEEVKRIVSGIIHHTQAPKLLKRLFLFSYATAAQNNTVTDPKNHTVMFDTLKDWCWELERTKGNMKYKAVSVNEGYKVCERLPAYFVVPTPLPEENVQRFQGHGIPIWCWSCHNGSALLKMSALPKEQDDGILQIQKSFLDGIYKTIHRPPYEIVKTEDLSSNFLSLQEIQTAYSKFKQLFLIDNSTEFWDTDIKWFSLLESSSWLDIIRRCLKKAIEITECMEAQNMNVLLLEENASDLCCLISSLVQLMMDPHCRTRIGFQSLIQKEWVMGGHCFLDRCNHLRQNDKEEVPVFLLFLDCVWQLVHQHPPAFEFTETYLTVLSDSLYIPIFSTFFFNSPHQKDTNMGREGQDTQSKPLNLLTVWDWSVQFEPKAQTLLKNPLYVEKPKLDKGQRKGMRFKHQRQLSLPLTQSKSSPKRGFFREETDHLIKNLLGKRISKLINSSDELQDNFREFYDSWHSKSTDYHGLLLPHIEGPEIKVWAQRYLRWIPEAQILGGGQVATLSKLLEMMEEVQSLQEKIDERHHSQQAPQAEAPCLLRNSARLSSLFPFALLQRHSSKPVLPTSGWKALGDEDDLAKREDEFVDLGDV
The procedure, abridged:
as §1

For the molecule `C=CC(=O)N1C[C@H](c2ccc(Br)cc2)[C@@H]1C(=O)Nc1cccc2cccnc12` [MY-1B, (2R,3S)-1-acryloyl-3-(4-bromophenyl)-N-(quinolin-8-yl)azetidine-2-carboxamide], the “% engagement FXYD3_C63” value at FXYD3_C63 is 52.5%. The “% engagement HARS2_C173” value at HARS2_C173 is given as 63.75%. Besides, on MTMR12_C152, the “% engagement MTMR12_C152” value was 31%.

For `C=CC(=O)N1C[C@H](c2ccc(Br)cc2)[C@H]1C(=O)Nc1cccc2cccnc12` [MY-3B, (2S,3S)-1-acryloyl-3-(4-bromophenyl)-N-(quinolin-8-yl)azetidine-2-carboxamide], the “% engagement FXYD3_C63” value at FXYD3_C63 came to 71%. Also, the “% engagement HARS2_C173” value at HARS2_C173 is given as 35.75%. For the same molecule, the “% engagement MTMR12_C152” value on MTMR12_C152 worked out at 91.5%.

Turning to `C=CC(=O)N1C[C@H](c2ccc(Br)cc2)[C@H]1C(=O)Nc1cccc2cccnc12` [MY-3A, (2S,3S)-1-acryloyl-3-(4-bromophenyl)-N-(quinolin-8-yl)azetidine-2-carboxamide], the “% engagement FXYD3_C63” value on FXYD3_C63 is listed as 43.5%. The “% engagement HARS2_C173” value on HARS2_C173 is 35.25%. Also, on MTMR12_C152, the “% engagement MTMR12_C152” value is 12%.

Take `C=CC(=O)N1C[C@@H](c2ccc(Br)cc2)[C@H]1C(=O)Nc1cccc2cccnc12` [MY-1A, (2S,3R)-1-acryloyl-3-(4-bromophenyl)-N-(quinolin-8-yl)azetidine-2-carboxamide]: the “% engagement FXYD3_C63” value at FXYD3_C63 is listed as 48.5%. Moreover, the “% engagement HARS2_C173” value at HARS2_C173 was 84.75%. For the same molecule, the “% engagement MTMR12_C152” value at MTMR12_C152 is 40.5%.
